The text below walks through data of patent US20080206311A1, “Sucrase Activity Inhibitor, Glucoamylase Activity Inhibitor and Food and Feed Containing the Same” (MITSUI SUGAR CO., LTD., priority 2005, published 2008).

The test deals with T1, lactase (Rattus norvegicus, UniProt Q02401).
T1 construct: tissue Sigma Corporation; host or cells: rat small intestine (acetone powder), buffer extract, unpurified
T1 sequence (Q02401 868-1928): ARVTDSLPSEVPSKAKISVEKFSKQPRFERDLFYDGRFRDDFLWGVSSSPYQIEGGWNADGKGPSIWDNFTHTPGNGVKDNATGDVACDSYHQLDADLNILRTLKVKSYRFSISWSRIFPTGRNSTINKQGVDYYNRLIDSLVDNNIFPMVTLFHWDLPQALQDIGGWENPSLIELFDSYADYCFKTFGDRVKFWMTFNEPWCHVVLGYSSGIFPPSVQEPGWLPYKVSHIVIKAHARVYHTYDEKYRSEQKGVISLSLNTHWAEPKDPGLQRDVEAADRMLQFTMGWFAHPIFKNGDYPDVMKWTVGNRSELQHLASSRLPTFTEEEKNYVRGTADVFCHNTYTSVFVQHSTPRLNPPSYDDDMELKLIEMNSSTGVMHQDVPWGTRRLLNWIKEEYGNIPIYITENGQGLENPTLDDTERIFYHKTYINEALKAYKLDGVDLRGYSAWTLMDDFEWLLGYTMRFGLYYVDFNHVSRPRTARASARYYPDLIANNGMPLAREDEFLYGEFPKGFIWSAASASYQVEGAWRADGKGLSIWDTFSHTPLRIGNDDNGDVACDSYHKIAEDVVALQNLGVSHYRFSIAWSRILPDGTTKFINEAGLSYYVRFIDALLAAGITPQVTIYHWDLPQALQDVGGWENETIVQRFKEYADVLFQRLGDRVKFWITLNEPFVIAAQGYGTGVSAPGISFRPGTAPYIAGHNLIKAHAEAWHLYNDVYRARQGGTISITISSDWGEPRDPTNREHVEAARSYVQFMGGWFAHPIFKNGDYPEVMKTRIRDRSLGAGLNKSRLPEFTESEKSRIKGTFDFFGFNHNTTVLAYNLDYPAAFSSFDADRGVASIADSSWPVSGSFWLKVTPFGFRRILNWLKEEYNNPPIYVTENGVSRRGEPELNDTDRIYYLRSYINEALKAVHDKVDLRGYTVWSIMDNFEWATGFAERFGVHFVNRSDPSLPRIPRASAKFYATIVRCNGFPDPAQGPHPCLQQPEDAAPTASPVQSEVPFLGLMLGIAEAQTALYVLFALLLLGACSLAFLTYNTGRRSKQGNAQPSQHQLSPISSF
The test can be described thus: Lactase activity inhibition with rat small-intestinal enzyme liquid, substrate lactose. The test is classed as biochemical. The conditions noted are these: 5% lactose + 5% test sample. How it is done: Two grams of rat small-intestinal acetone powder (ex Sigma Corporation) were dissolved in 20 ml of 0.1 M phosphate buffer (pH 6.8), left standing one day at 5° C., and subsequently subjected to centrifugal separation (8000 rpm×15 min.). The supernatant was filtered through a 0.8 μm membrane filter to obtain a small-intestinal enzyme liquid. This liquid contained a mixture of enzymes present in small intestine, such as sucrose, glucoamylase, maltase, and isomaltase.
Each 0.25 ml of the small-intestinal enzyme liquid was added to each 5 ml of Solutions 1 through 5 and placed in a water bath at 37° C. to allow them to react for 60 min. while shaken at 60 strokes/min. After the reaction, they were heated in a boiling water bath for 3 min. for inactivation of the enzymes.
The glucose concentration in each solution after the reaction was measured using the F-kit Glucose (ex Roche). A liberated glucose concentration (g/l) was calculated by subtracting the blank value (0.1 M phosphate buffer alone) and the concentration of glucose originally contained in the test sample from each glucose concentration measured.
Next, each of the liberated glucose concentration was input in the following equation to obtain decomposition inhibition ratio for maltase and sucrose. In the present tests, the substrates and the inhibitors were decomposed by enzymes present in the small-intestinal enzyme liquid. However, the enzymes decomposing the substrates are different from the enzymes decomposing the inhibitors. The decomposition inhibition ratio was determined as a measure for the inhibitory effect. When the inhibitor was added, the glucose concentration was lower than that seen when the substrate alone was reacted. A higher decomposition inhibition ratio means a stronger inhibitory effect.
Decomposition inhibition ratio,%={(A+B)−(AB)}+(A+B)×100 [Equation 1]
wherein (A+B) indicates a sum of a liberated glucose concentration in the control solution containing the test sample alone after the reaction (A) and a liberated glucose concentration in the control solution containing the substrate alone after the reaction (B); and (AB) indicates a liberated glucose concentration in the test solution containing the test sample (A) and the substrate (B), after the reaction.
The procedures in Example 1 were repeated with the exception that palatinit, palatinose or isomaltose was used as a test sample and lactose was used as a substrate. The test samples and the substrate were dissolved in 0.1 M phosphate buffer (pH 6.8) to attain the concentration shown in Table 5 to thereby prepare three test solutions. Besides, each of the test samples or the substrate was dissolved in 0.1 M phosphate buffer (pH 6.8) to attain the concentration shown in Table 5 to thereby prepare control solutions. Each 5 ml of the aforementioned test solutions and the control solutions was subjected to the enzymatic reaction according to the same procedures as in Example 1. The glucose concentration, the fructose concentration and the galactose concentration were measured. The galactose concentration was measured using F-kit Galactose (ex Roche). The liberated galactose concentration, g/l, was calculated by subtracting the blank value (0.1 M phosphate buffer alone) from the measured galactose concentration.

With `OC[C@H]1O[C@H](OC[C@H]2OC(O)(CO)[C@@H](O)[C@@H]2O)[C@H](O)[C@@H](O)[C@@H]1O` (some centres unmarked) [palatinose, isomaltulose], the “Decomposition inhibition ratio, %, against lactase” value came out at 3%; the “Lactase activity inhibitory effect (in words)” value is listed as “no lactose inhibitory effect was appreciable”; the Liberated fructose concentration is 0.23 g/L; the Liberated galactose concentration turned out to be 0.12 g/L. For the same compound, the Liberated glucose concentration is 0.33 g/L.
